For data set [1], the system named is homogenized annulus tissue. As to conditions: bovine.
Procedure: (§1) Increasing concentrations of protein crosslinkers were added to homogenized annulus tissue and incubated for either 1 hr (EDC, GP, MG, PA and GA), 2 hrs (TG) or 6 hrs (DT and LT). Crosslinking was quantified by determining the amount of hydroxyproline (HYP) released from the tissue by collagenase digestion.
(§2) Homogenized annulus tissue was treated with sub-saturating concentrations of various crosslinkers at varying pH and incubated for either 1 hr (EDC, GP, MG, PA and GA), 2 hrs (TG) or 6 hrs (LT). Crosslinking was quantified by determining the amount of hydroxyproline (HYP) released from the tissue by collagenase digestion.
(§3) In order to determine the effective concentration range for various crosslinking reagents we incubated samples of annulus tissue in increasing concentrations of either genipin (GP), methylglyoxal (MG), proanthrocyanidin (PA), L-threose (LT), D-threose (DT), dimethylaminopropyl) carbodiimide hydrochloride (EDC) or transglutaminase (TG). Crosslinking efficiency was measured indirectly by monitoring the release of peptides containing hydroxyproline upon subsequent digestion with collagenase. Glutaraldehyde (GA), a commonly used, but highly toxic protein crosslinker was used as a positive control.
(§4) To test this hypothesis, the inventors subjected calf annulus fibrosus tissue to crosslinking with sub-saturating levels of our reagents at varying pH. In order to maintain optimal buffering capacity at each pH, different buffers were selected for each point.
The test system of data set [2] is homogenized annulus tissue. As to the kind of experiment: Crosslinking of annulus tissue quantified by hydroxyproline release upon collagenase digestion. The conditions noted are these: for effect of buffer (EPPS vs Tris) on crosslinking: 100 mM EPPS or 100 mM Tris, GP at pH 9; for effect of phosphate on crosslinking: Tris buffer pH 8, increasing concentrations of sodium phosphate; for pH: optimized pH for crosslinking; for pH dependence of crosslinking: sub-saturating crosslinker, pH 4-9 with a different buffer at each pH (FIG. 2, FIG. 3); for concentration at which crosslinking was complete / a plateau was reached: FIG. 1, 1 hr (MG), 6 hrs (DT and LT).
Procedure: as §1, §2, §3, §4

For data set [3] the following is noted: in water; proposed values; cited from earlier work.
For data set [4] the following is noted: at 20° C.; cited from earlier work.
The mark [5] stands for this setting: saturating crosslinker concentration, Table 5.
The mark [6] stands for this setting: sub-saturating MG, 100 mM MOPS pH 7.

Entries after “also recorded” stand apart in the source; their conditions may differ. Where only a bound is given, the exact number is not on record here.

proanthrocyanidin: the T1/2 in data set [1] is recorded as under 5 min. Moreover, in data set [2], the “effect of buffer (EPPS vs Tris) on crosslinking” value is on record as “did not see any difference”, the “effect of phosphate on crosslinking” value is on record as “did not have any substantial” and the “pH dependence of crosslinking” value is “relatively insensitive to pH”. The pH in data set [2] (Table 5) is recorded as 5-9. Also, the “[Saturating]” value in data set [2] (setting [5]) is on record as 0.1%.

The molecule `CC(=O)C=O` [Methylglyoxal, methylglyoxal] gave a T1/2 in data set [1] of 14 to 20 min. The max solubility entry in data set [3] is on record as “about 6 M”. Moreover, the “enhancement of crosslinking by phosphate” value in data set [2] (100 mM EPPS pH 8, 100 mM potassium phosphate, p=0.1) is “approximately 3 fold”. Besides, in data set [2], the “concentration at which crosslinking was complete / a plateau was reached” value was found to be 50 mM and the “effect of phosphate on crosslinking” value is recorded as “enhance disc tissue crosslinking in a dose-dependent manner”. Moreover, the “[Saturating]” value in data set [2] (at pH 7) lay within 30 to 50 mM. The “[Saturating]” value in data set [2] (at pH 8 (100 mM EPPS buffer), listed as MG) came to 10 mM. Moreover, the pH in data set [2] (Table 5) is 8-9. In data set [2] (setting [6]), the “borohydride concentration at which the crosslinking reaction was enhanced” value lay within 1 to 5 mM and the “effect of 10 mM borohydride on crosslinking” value is given as “inhibitory”. For the same molecule, the “borohydride concentration at which enhancement was observed” value in data set [2] (sub-saturating MG, EPPS buffer pH 8.0) was “below 1.5 mM”. For the same molecule, the “activity in EPPS when compared to Tris” value in data set [2] (sub-saturating MG, pH 8, 100 mM buffer, p<0.0001, n=10) is about 2 fold. Also, the “pH dependence of crosslinking” value in data set [2] (listed as MG) is “function better in disc tissue at the higher pH levels; also recorded: equally efficient at pH 8 and 9; also recorded: marked increase in its crosslinking ability at pH 8 compared to pH 7”.

As to `CCN=C=NCCCN(C)C.Cl` [EDC, 1-ethyl-3-[3-dimethylaminopropyl]carbodiimide hydrochloride], in data set [2] (Table 5), the pH turned out to be 6. For the same molecule, the “[Saturating]” value in data set [2] (setting [5]) lay within 2.5 to 5 mM. Further, the “pH dependence of crosslinking” value in data set [2] is reported as “required a relatively narrow pH range”.

As to `O=C[C@H](O)[C@@H](O)CO` [L-Threose, L-threose], in data set [1], the T1/2 turned out to be 150 min. For the same molecule, the max solubility result in data set [3] is “comparable to MG”. In addition, in data set [2], the “effect of buffer (EPPS vs Tris) on crosslinking” value is “did not see any difference”, the “concentration at which crosslinking was complete / a plateau was reached” value was “approximately 50 mM” and the “pH dependence of crosslinking” value is listed as “function better in disc tissue at the higher pH levels”. Also, the pH in data set [2] (Table 5) is reported as 8-9. Further, the “[Saturating]” value in data set [2] (setting [5]) is listed as 50 mM.

As for tris(hydroxymethyl)aminomethane, the pKa (commonly the pH at which an ionisable group is half protonated) in data set [4] is reported as 8.3.

Turning to `O=C[C@@H](O)[C@H](O)CO` [D-Threose, D-threose], in data set [2], the “concentration at which crosslinking was complete / a plateau was reached” value is listed as “approximately 50 mM”. For the same molecule, the “[Saturating]” value in data set [2] (setting [5]) worked out at 50 mM.

`O=CCCCC=O` [Glutaraldehyde, reference compound] returned a T1/2 in data set [1] of under 5 min. The pH in data set [2] (Table 5) is listed as 8-9. Further, in data set [2] (setting [5]), the “[Saturating]” value is 1 to 2 mM.

B1: transglutaminase (protein, UniProt P21980 2-687, looked up)
Protein-glutamine …: AEELVLERCDLELETNGRDHHTADLCREKLVVRRGQPFWLTLHFEGRNYEASVDSLTFSVVTGPAPSQEAGTKARFPLRDAVEEGDWTATVVDQQDCTLSLQLTTPANAPIGLYRLSLEASTGYQGSSFVLGHFILLFNAWCPADAVYLDSEEERQEYVLTQQGFIYQGSAKFIKNIPWNFGQFEDGILDICLILLDVNPKFLKNAGRDCSRRSSPVYVGRVVSGMVNCNDDQGVLLGRWDNNYGDGVSPMSWIGSVDILRRWKNHGCQRVKYGQCWVFAAVACTVLRCLGIPTRVVTNYNSAHDQNSNLLIEYFRNEFGEIQGDKSEMIWNFHCWVESWMTRPDLQPGYEGWQALDPTPQEKSEGTYCCGPVPVRAIKEGDLSTKYDAPFVFAEVNADVVDWIQQDDGSVHKSINRSLIVGLKISTKSVGRDEREDITHTYKYPEGSSEEREAFTRANHLNKLAEKEETGMAMRIRVGQSMNMGSDFDVFAHITNNTAEEYVCRLLLCARTVSYNGILGPECGTKYLLNLNLEPFSEKSVPLCILYEKYRDCLTESNLIKVRALLVEPVINSYLLAERDLYLENPEIKIRILGEPKQKRKLVAEVSLQNPLPVALEGCTFTVEGAGLTEEQKTVEIPDPVEAGEEVKVRMDLLPLHMGLHKLVVNFESDKLKAVKGFRNVIIGPA
In the case of B1, the “[Saturating]” value in data set [2] (2 hrs incubation, highest concentration tested 2 U/ml) is over 2 U/ml; in data set [2] (2 hrs incubation, highest concentration tested 2 U/ml, listed as TG), over 2 U/ml. In data set [2] (Table 5), the pH is 7-8. The “pH dependence of crosslinking” value in data set [2] is listed as “required a relatively narrow pH range”.

The values are drawn from patent publication US8283322B2, “Formulations for nonsurgical exogenous crosslink therapy” (Orthopeutics, LP, priority 2008, dated 2012).
